Patent US10144736B2 (Gilead Sciences, Inc., priority 2006, dated 2018)
Where two headings read alike, the source gives them in different places.

Experiments:
[1] = CC50 assay (CellTiter-Glo) in Huh-7 HCV replicon cells; type: cell-based, human; conditions: human, 3 days incubation, 50% cytostatic concentration
Description: (§1) The anti HCV activity of specifically substituted pteridine derivatives was tested in a human hepatoma Huh-7 cell line harbouring a HCV replicon. The assay comprised the following steps:
(§2) Step 1: compound preparation and serial dilution involved the following alternatives, depending upon the water solubility of pteridine derivative being tested:
(§3) • 1. with respect to water soluble pteridine derivatives, 500 μL of solution in cell media (DMEM, 10% FBS, P/S, L-Glutamine) was prepared with a concentration that is twice the concentration of the starting final serial dilution concentration. 150 μL of the solution was added to the pre-specified wells in column 1 of a 96-well cell culture plate (PerkinElmer, white plate, cat. #6005181, for EC50 assay; black plate, cat. #6005182 for CC50 assay). The rest of the plate, i.e. columns 2-12, was filled with 100 μL of cell media. The plate was then placed on a Precision 2000 Workstation in order to start serial dilution. Pteridine compounds were diluted three times each step from column 1 to column 10. Column 11 was used as a blank control (no pteridine compound added). • 2. With respect to poorly water soluble pteridine derivatives, DMSO was used as a solvent, and serial dilution was performed in 50% DMSO in water, in a 384-well plate. A solution containing the relevant compound at 100-fold the concentration of the starting final serial dilution concentration was prepared in 50% DMSO in water and added to the pre-specified wells in column 1 of a polypropylene 384-well plate. This plate was then placed on a Precision 2000 Workstation in order to start serial dilution. After serial dilution, 2 μL of the solution was transferred from the 384-well plate to a 96-well cell culture plate containing 100 μL of cell media on a Biomek FX Workstation. The DMSO concentration in the final assay condition was 0.5% after cells have been added to the plate and the total volume in each well was brought to 200 μL. Step 2: to each well of the serial dilution plate prepared in step 1, 100 μL of cell media containing 6000 suspended Huh-7 HCV replicon cells was added with a Multidrop workstation. Plates were incubated for 3 days at 37° C. with 5% CO2. Step 3: detection: • 1) with respect to the EC50 assay, the media in a 96-well cell culture plate was aspirated with a Biotek EL405 plate-washer. A volume of 200 μL of a solution containing a 1:1 mixture of a cell-lysis buffer (commercially available from Promega, Luciferase Cell Culture Lysis 5X Reagent, cat. #E1531) and a luciferase substrate solution (commercially available from Promega, Luciferase Assay, cat. #E4550) was added to each well of the plate with Multidrop. The plate was incubated for 30 minutes at room temperature before the luminescence signal was measured with a TopCount plate-reader. • 2) with respect to the CC50 assay, 100 μL of a pre-mixed CellTiter-Glo (commercially available from Promega, cat. #G7572) solution was added directly to the cell culture in each well of the plate and the luminescence signal was measured with a TopCount plate-reader after 10 minutes of incubation at room temperature.
(§4) Results are expressed by the following data: • the 50% effective concentration (EC50), i.e. the concentration that protects 50% of the cell monolayer from virus-induced cythopathic effect. • the 50% cytostatic concentration (CC50), i.e. the concentration that results in 50% inhibition of cell growth.

HCV replicon = assay: Anti-HCV replicon assay (EC50, luciferase readout); type: cell-based, hepatitis C virus; conditions: human hepatoma Huh-7 cell line harbouring a HCV replicon, 3 days incubation, luciferase signal
Description: as §1, §2, §3, §4

[2] = Hepatitis C virus, 72 h, read-out: EC50

SMILES	CC50 at 3 days [1] [µM]	EC50 (HCV replicon; [2]) [µM]	EC50 (HCV replicon; Hepatitis C virus, Huh-7, 72 h) [µM]	EC50 (HCV replicon) [µM]	EC50 (HCV replicon; Hepatitis C virus, Huh-7, in Homo sapiens, 72 h) [µM]
COc1nc(N)nc2ncc(-c3ccc(F)cc3)nc12 [Example 149, 6-(4-Fluorophenyl)-4-methoxy-pteridin-2-ylamine]	> 20	0.3 to 1			
CCOc1nc(N)nc2ncc(-c3ccc(O)cc3)nc12 [Example 57, 4-(2-amino-4-ethoxypteridin-6-yl)phenol]	> 20		1 to 10		
CCCOc1nc(N)nc2ncc(-c3ccc(F)cc3)nc12 [Example 159, 6-(4-Fluorophenyl)-4-propoxy-pteridin-2-ylamine]	> 20	1 to 10			
Nc1nc(N2CCOCC2)c2nc(-c3ccsc3)cnc2n1 [Example 110, 4-morpholino-6-(thiophen-3-yl)pteridin-2-ylamine]	> 20	1 to 10			
CC(C)(O)CCOc1nc(N)nc2ncc(-c3ccc(F)cc3)nc12 [Example 154, 4-[2-Amino-6-(4-fluorophenyl)-pteridin-4-yloxy]-2-methyl-butan-2-ol]	> 20		1 to 10		
C[C@H](N)C(=O)Nc1ccc(-c2cnc3nc(N)nc(N4CCOCC4)c3n2)cc1 [Example 145, (S)-2-amino-N-(4-(2-amino-4-morpholinopteridin-6-yl)phenyl)-propanamide]	> 20	0.3 to 1			
Nc1nc(N2CCOCC2)c2nc(-c3cccnc3F)cnc2n1 [Example 109, 6-(2-fluoropyridin-3-yl)-4-morpholino-pteridin-2-ylamine]	10 to 20		1 to 10		
N#Cc1cccc(-c2cnc3nc(N)nc(N4CCOCC4)c3n2)c1 [Example 85, 3-(2-amino-4-morpholinopteridin-6-yl)benzonitrile]	> 20	1 to 10			
Nc1nc(N2CCOCC2)c2nc(-c3ccc(NC(=O)[C@@H](N)CO)cc3)cnc2n1 [Example 144, (S)-2-amino-N-(4-(2-amino-4-morpholinopteridin-6-yl)phenyl)-3-hydroxypropanamide]	> 20	1 to 10			
CC(C)Oc1nc(N)nc2ncc(-c3ccc(F)cc3)nc12 [Example 150, 6-(4-Fluorophenyl)-4-isopropoxy-pteridin-2-ylamine]	> 20	< 0.3			
Nc1nc(N2CCOCC2)c2nc(-c3cc4ccccc4s3)cnc2n1 [Example 123, 6-(benzo[b]thiophen-2-yl)-4-morpholinopteridin-2-ylamine]	< 10		0.3 to 1		
Cc1cc(F)ccc1-c1cnc2nc(N)nc(N3CCOCC3)c2n1 [Example 120, 6-(4-fluoro-2-methylphenyl)-4-morpholinopteridin-2-ylamine]	10 to 20	1 to 10			
Nc1nc(N2CCOCC2)c2nc(-c3cccc(Cl)c3Cl)cnc2n1 [Example 91, 6-(2,3-dichlorophenyl)-4-morpholinopteridin-2-amine]	> 20		0.3 to 1		
CCSc1nc(N)nc2ncc(-c3ccc(F)cc3)nc12 [Example 164, 4-ethylthio-6-(4-fluorophenyl)-pteridin-2-ylamine]	> 20	0.3 to 1			
CCOc1nc(N)nc2ncc(-c3ccncc3)nc12 [Example 31, 4-ethoxy-6-(pyridin-4-yl)pteridin-2-ylamine]	< 10	0.3 to 1			
CCOc1nc(N)nc2ncc(-c3ccc(N)cc3)nc12 [Example 69, 6-(4-aminophenyl)-4-ethoxypteridin-2-ylamine]	> 20		1 to 10		
Nc1nc(N2CCOCC2)c2nc(-c3cccc(OC(F)(F)F)c3)cnc2n1 [Example 84, 4-morpholino-6-(3-(trifluoromethoxy)phenyl)-pteridin-2-ylamine]	< 10	< 0.3			
Nc1nc(N)c2nc(-c3cccc(F)c3F)cnc2n1 [Example 143, 6-(2,3-difluoro-phenyl)-pteridine-2,4-diamine]	10 to 20	1 to 10			

SMILES	CC50 at 3 days [1] [µM]	EC50 (HCV replicon; [2]) [µM]	EC50 (HCV replicon; Hepatitis C virus, Huh-7, 72 h) [µM]	EC50 (HCV replicon) [µM]	EC50 (HCV replicon; Hepatitis C virus, Huh-7, in Homo sapiens, 72 h) [µM]
Nc1nc(N2CCOCC2)c2nc(-c3ccc(CN4CCOCC4)cc3)cnc2n1 [Example 89, 4-morpholino-6-(4-(morpholino-methyl)phenyl)pteridin-2-ylamine]	> 20	1 to 10			
COc1ccccc1-c1cnc2nc(N)nc(N3CCOCC3)c2n1 [Example 80, 6-(2-methoxyphenyl)-4-morpholinopteridin-2-ylamine]	> 20	0.3 to 1			
CCOc1nc(N)nc2ncc(-c3ccc(C)cc3)nc12 [Example 54, 4-ethoxy-6-p-tolylpteridin-2-ylamine]	> 20	1 to 10			
CCCCOc1nc(N)nc2ncc(-c3ccc(F)cc3)nc12 [Example 152, 4-Butoxy-6-(4-fluorophenyl)-pteridin-2-ylamine]	> 20	1 to 10			
CCOc1nc(N)nc2ncc(-c3ccc(S(C)(=O)=O)cc3)nc12 [Example 30, 4-ethoxy-6-(4-(methylsulfonyl)phenyl)pteridin-2-ylamine]	> 20	1 to 10			
Nc1nc(N2CCOCC2)c2nc(-c3ccccc3Cl)cnc2n1 [Example 78, 6-(2-chlorophenyl)-4-morpholinopteridin-2-ylamine]	< 10		0.3 to 1		
C[C@H](NC(=O)OC(C)(C)C)C(=O)Nc1ccc(-c2cnc3nc(N)nc(N4CCOCC4)c3n2)cc1 [Example 140, (S)-tert-butyl 1-(4-(2-amino-4-morpholinopteridin-6-yl)phenylamino)-1-oxopropan-2-ylcarbamate]	< 10	1 to 10			
Nc1nc(N2CCOCC2)c2nc(-c3ccn[nH]3)cnc2n1 [Example 112, 4-morpholino-6-(1H-pyrazol-5-yl)pteridin-2-ylamine]	> 20	1 to 10			
Nc1nc(N2CCOCC2)c2nc(-c3ccoc3)cnc2n1 [Example 111, 6-(furan-3-yl)4-morpholinopteridin-2-ylamine]	> 20		1 to 10		
Nc1nc(N2CCOCC2)c2nc(-c3ccc4c(c3)CC(=O)N4)cnc2n1 [Example 136, 5-(2-amino-4-morpholinopteridin-6-yl)indolin-2-one]	10 to 20	1 to 10			
Nc1nc(N2CCOCC2)c2nc(-c3ccccc3C(F)(F)F)cnc2n1 [Example 79, 4-morpholino-6-(2-(trifluoromethyl)phenyl)pteridin-2-ylamine]	< 10	0.3 to 1			
Nc1nc(N2CCOCC2)c2nc(-c3ccc(F)cc3Cl)cnc2n1 [Example 92, 6-(2-chloro-4-fluorophenyl)-4-morpholinopteridin-2-ylamine]	10 to 20		0.3 to 1		
Nc1nc(N2CCOCC2)c2nc(-c3cccc(F)c3F)cnc2n1 [Example 90, 6-(2,3-difluorophenyl)-4-morpholinopteridin-2-ylamine]	> 20			0.3 to 1	
Nc1nc(N2CCOCC2)c2nc(-c3ccc(C(F)(F)F)cc3C(F)(F)F)cnc2n1 [Example 93, 6-(2,4-bis(trifluoromethyl)phenyl)-4-morpholinopteridin-2-ylamine]	10 to 20	1 to 10			
Nc1nc(N2CCOCC2)c2nc(-c3ccc(Cl)s3)cnc2n1 [Example 127]	< 10				0.3 to 1
CC(C)C(=O)Nc1ccc(-c2cnc3nc(N)nc(N4CCOCC4)c3n2)cc1 [Example 137, N-(4-(2-amino-4-morpholinopteridin-6-yl)phenyl)isobutyramide]	10 to 20	< 0.3			
Nc1nc(OCC2CC2)c2nc(-c3ccc(F)cc3)cnc2n1 [Example 157, 4-Cyclopropylmethoxy-6-(4-fluorophenyl)-pteridin-2-ylamine]	> 20	1 to 10			
